In assay [1] the test system is neuron-Schwann cell co-cultures. The assay can be described thus: Sensory neurite extension and myelination in healthy primary dorsal root ganglia cultures. In kind it is cell-based, rat. Also noted: key to Significant promotion of Neurite Network Extension of Sensory Neurons / Significant promotion of Myelination of Sensory neurons by Schwann Cells: “NS” indicates the treatment did not have a significant effect; “+” indicates the treatment had a significant effect. The conditions noted are these: for Significant promotion of Myelination of Sensory neurons by Schwann Cells / Significant promotion of Neurite Network Extension of Sensory Neurons: Healthy cultures, vs vehicle. The protocol:
(§1) To assess the effects of test compound treatment on these structures central to neuropathic pathology, peripheral sensory neurons were modeled using dissociated primary cultures of neurons and Schwann cells collected from fetal rats. Fetal rats were collected from pregnant females after 15 days of gestation, and the dorsal root ganglion was dissociated via trypsin digestion and mechanical disruption. The resulting cells were plated and allowed to grow for 7 days. On day 7 in culture, ascorbic acid at a concentration of 50 μM was added to the culture to promote myelination of sensory neurons by Schwann cells.
To model the effects of Compound 5a in the normal peripheral nervous system, neuron-Schwann cell co-cultures were treated with Compound 5a in combination with low doses of recombinant hepatocyte growth factor (HGF). On day 8 in culture, experimental treatments were added to culture media. These treatments included HGF with or without Compound 5a. Some cultures were treated with the steroid hormone B-estradiol to serve as a positive control. Treatments were applied every other day, and on day 21 in culture the cultures were fixed with ethanol and processed for immunodetection of both microtubule-associate protein 2 (MAP2) to reveal neurons and their neurites as well as myelin-associated glycoprotein (MAG) to reveal Schwann cells and the extent of their myelination of cultured neurites. Cells were counterstained with Hoechst DNA dye to identify individual cells.
(§2) 30 fluorescent images were captured for each treatment group and images were quantified by automated image analysis. Neurite network extension was quantified as the total length of MAP2-positive neurites per cell measured in μm. Myelination by Schwann cells was quantified by the area of overlap between MAP2-positive neurites and MAG-positive myelin wrapping measured in μm^2. Statistical analysis was performed as a one-way ANOVA with Fisher's LSD post-test against either vehicle- or Cisplatin-treated groups respectively.

For assay [2], the system named is neuron-Schwann cell co-cultures injured with cisplatin. The assay can be described thus: Sensory neurite extension and myelination in cisplatin-injured primary dorsal root ganglia cultures. In kind it is cell-based, rat. Also on record: key to Significant promotion of Neurite Network Extension of Sensory Neurons / Significant promotion of Myelination of Sensory neurons by Schwann Cells: “NS” indicates the treatment did not have a significant effect; “+” indicates the treatment had a significant effect. As to conditions: for Significant promotion of Myelination of Sensory neurons by Schwann Cells / Significant promotion of Neurite Network Extension of Sensory Neurons: +Cisplatin injury (10 μg/ml, 24 hours), vs Cisplatin-treated group. The protocol: as §1
To model the effects of neuropathic injury in sensory neurons and associated Schwann cells, cultures were injured with the chemotherapy drug cisplatin. These cultures were prepared identically to those described above. In this system, Compound 5a, HGF, and β-estradiol treatments began on culture day 19. Also on culture day 19, cisplatin (10 μg/ml) was added to the cultures for 24 hours. On culture day 20, cisplatin was removed from the media while test compound treatments were replaced for 24 hours. On day 21 in culture, cells were fixed and processed for immunodetection as described above.
as §2

The mark [3] stands for this setting: healthy cultures, positive control β-estradiol.
The mark [4] stands for this setting: injured cultures, positive control β-estradiol.
Setting [5] is: healthy cultures, HGF alone at either 0.05 or 5 ng/ml.
The mark [6] stands for this setting: injured cultures, HGF alone at either 0.05 or 5 ng/ml.

The results in this text go back to patent US20250275975A1, “Methods of Treating Neuropathies” (Athira Pharma, Inc., priority 2023, published 2025).

On to `C[C@]12CC[C@@H]3c4ccc(O)cc4CC[C@H]3[C@@H]1CC[C@@H]2O` [β-estradiol, reference compound], for which, in assay [1] (β-estradiol 150 nM), the “Significant promotion of Myelination of Sensory neurons by Schwann Cells” value (“Significant promotion … by Schwann Cells” below) is reported as “+” and the “Significant promotion of Neurite Network Extension of Sensory Neurons” value is given as “+”. Besides, in assay [1] (setting [3]), the “myelination of sensory neurons by Schwann cells” value was “significantly promoting” and the neurite network extension entry was “significantly promoting”. Moreover, in assay [2] (β-estradiol 150 nM), the “Significant promotion … by Schwann Cells” value is reported as “+” and the “Significant promotion of Neurite Network Extension of Sensory Neurons” value is recorded as “+”. Moreover, in assay [2] (setting [4]), the “myelination of sensory neurons by Schwann cells” value was “significantly promoting” and the neurite network extension result is given as “significantly promoting”.
Consider “HGF: recombinant hepatocyte growth factor (HGF), added at low doses with or without Compound 5a”, for which the “Significant promotion … by Schwann Cells” value in assay [1] (HGF 0.05 ng/ml alone), in assay [1] (HGF 5 ng/ml alone), in assay [2] (HGF 0.05 ng/ml alone) and in assay [2] (HGF 5 ng/ml alone) was “NS” in each case. The “Significant promotion of Neurite Network Extension of Sensory Neurons” value in assay [1] (HGF 0.05 ng/ml alone), in assay [1] (HGF 5 ng/ml alone), in assay [2] (HGF 0.05 ng/ml alone) and in assay [2] (HGF 5 ng/ml alone) was “NS” throughout. The myelination result in assay [1] (setting [5]) and in assay [2] (setting [6]) was “did not significantly promote” in each case. Moreover, the neurite network extension entry in assay [1] (setting [5]) and in assay [2] (setting [6]) was “did not significantly promote” throughout.
